{"source": "paper PMC6272306", "about": "“LC-MS/MS Determination and Pharmacokinetic Study of Pedunculoside in Rat Plasma after Oral Administration of Pedunculoside and Ilex rotunda Extract” (Molecules, 2015)", "key": {"[1]": {"assay": "Stability of PDC in rat plasma QC samples under various storage conditions", "assay_type": "in vitro ADME", "conditions": "n = 6", "procedure": "The results were compared with those obtained with freshly prepared QC samples. It could be seen from Table 3 that the results are well within the acceptance limits. Stability of PDC in plasma was tested by the analysis of six replicates of QC samples […] exposed to various storage conditions. To assess the short-term stability study, QC samples were kept at 25 °C for at least 4 h and samples were processed at different time points and were determined and compared with the freshly prepared QC samples. For the long-term stability, QC samples were determined after storage of the plasma samples at −20 °C for 2 months. For freeze-thaw stability, QC samples were subjected to three freeze/thaw cycles (room temperature to −20 °C). For post-preparation stability, the processed QC samples stored in the autosampler trials for 12 h at 4 °C, were analyzed and compared with the freshly prepared QC samples."}, "[2]": {"assay": "Pharmacokinetic study of PDC in rat plasma after oral administration of pure PDC or IRE (LC-MS/MS)", "assay_type": "in vivo, Sprague-Dawley rats", "conditions": "male, Sprague-Dawley, PDC in rat plasma, n = 6, mean ± SD; for CL/F: read-out: CLz/F (converted); for MRT last: read-out: MRT0–t; for MRT inf: read-out: MRT0–∞; for Vd/F: read-out: Vz/F; for half-life: read-out: t1/2z (converted)", "procedure": "The analytical procedures described in Section 3.3 were performed to quantify PDC in rat plasma samples obtained from 24 male Sprague-Dawley rats. Out of these rats, 12 were orally administered with pure PDC, whereas 12 were orally administered with IRE. Establishing an intravenous dose group might provide the bioavailability of PDC, however, the present experiment aimed to compare the pharmacokinetic differences of PDC between monomer and IRE groups after oral administration. A fully validated LC-MS/MS method was developed and successfully applied to the pharmacokinetic behavior of PDC in rats after oral administration of the pure PDC and IRE, which were given at the same equivalent doses (42 and 84 mg/kg PDC). The mean plasma concentration-time profiles of PDC and the herbal extract after oral administration at different doses are illustrated in Figure 3, and the estimated pharmacokinetic parameters are presented in Table 4. A simple and rapid protein precipitation method was used for the preparation of all the plasma samples (calibration standards and QC samples, and real plasma samples post-dose). Plasma sample aliquots (75 µL) were added with IS solution (50 µL, 200 ng/mL) and methanol (500 µL) in tubes, then vortex-mixed for 1 min, and centrifuged at 14,000× g for 10 min. […] The dried residue was reconstituted in 100 µL of methanol-H2O (70:30, v/v) and centrifuged at 14,000× g for 5 min before analysis, and an aliquot of 5 µL was injected into LC-MS/MS systems for analysis. All experimental procedures and protocols were approved by the Animal Care and Use Committee of Jilin University (Changchun, China). All the rats were fasted for 12 h before the experiment, and were randomly divided into four groups (n = 6 per group). Group I and II were intragastrically administrated an oral dose of 42 and 84 mg/kg pure PDC, respectively. Group III and IV were intragastrically administrated an oral dose of 0.16 and 0.32 g/kg IRE, which was equivalent to 42 and 84 mg/kg PDC, respectively. Both pure PDC and IRE powder was suspended in 0.5% carboxymethyl cellulose sodium (CMC-Na) solution just before use. Blood samples (0.3 mL) were collected from the orbital sinus venous plexus at 0, 0.083, 0.25, 0.5, 0.75, 1, 1.5, 2, 3, 4, 6, 8, and 12 h after gavage dosing. After centrifuging at 5000× g for 10 min, the plasma samples were obtained and frozen at −20 °C until analysis. The pharmacokinetic parameters including Cmax, Tmax, t1/2z, AUC0–t, AUC0–∞, CLz/F, and Vz/F were calculated by non-compartmental method using the DAS 2.0 pharmacokinetics program (Chinese Pharmacology Society, Beijing, China). An independent-sample t-test was performed twice to evaluate the differences of pharmacokinetic parameters between the two groups."}, "[3]": {"tested_on": "hyperlipidemic albino rats", "set-up": "method as in doi:10.1076/phbi.37.1.37.6314", "conditions": "cited from earlier work"}, "[4]": {"conditions": "processed rat plasma samples in autosampler, Post-preparation stability (4 °C for 12 h), nominal 0.60 ng/mL (LLOQ)"}, "[5]": {"conditions": "processed rat plasma samples in autosampler, Post-preparation stability (4 °C for 12 h), nominal 1.50 ng/mL (QC-low)"}, "[6]": {"conditions": "processed rat plasma samples in autosampler, Post-preparation stability (4 °C for 12 h), nominal 15.0 ng/mL (QC-medium)"}, "[7]": {"conditions": "processed rat plasma samples in autosampler, Post-preparation stability (4 °C for 12 h), nominal 180 ng/mL (QC-high)"}, "[8]": {"conditions": "rat plasma, Long-term stability (−20 °C for 2 months), nominal 0.60 ng/mL (LLOQ)"}, "[9]": {"conditions": "rat plasma, Long-term stability (−20 °C for 2 months), nominal 1.50 ng/mL (QC-low)"}, "[10]": {"conditions": "rat plasma, Long-term stability (−20 °C for 2 months), nominal 15.0 ng/mL (QC-medium)"}, "[11]": {"conditions": "rat plasma, Long-term stability (−20 °C for 2 months), nominal 180 ng/mL (QC-high)"}, "[12]": {"conditions": "rat plasma, Short-term (25 °C for 4 h), nominal 0.60 ng/mL (LLOQ)"}, "[13]": {"conditions": "rat plasma, Short-term (25 °C for 4 h), nominal 1.50 ng/mL (QC-low)"}, "[14]": {"conditions": "rat plasma, Short-term (25 °C for 4 h), nominal 15.0 ng/mL (QC-medium)"}, "[15]": {"conditions": "rat plasma, Short-term (25 °C for 4 h), nominal 180 ng/mL (QC-high)"}, "[16]": {"conditions": "rat plasma, Three freeze/thaw cycles (room temperature to −20 °C), nominal 0.60 ng/mL (LLOQ)"}, "[17]": {"conditions": "rat plasma, Three freeze/thaw cycles (room temperature to −20 °C), nominal 1.50 ng/mL (QC-low)"}, "[18]": {"conditions": "rat plasma, Three freeze/thaw cycles (room temperature to −20 °C), nominal 15.0 ng/mL (QC-medium)"}, "[19]": {"conditions": "rat plasma, Three freeze/thaw cycles (room temperature to −20 °C), nominal 180 ng/mL (QC-high)"}, "[20]": {"conditions": "42 mg/kg PDC (IRE dosage equivalent to PDC dosage)"}, "[21]": {"conditions": "84 mg/kg PDC (IRE dosage equivalent to PDC dosage)"}}, "note": "Read-outs that look alike come from different tables or passages of the source."}
{"smiles": "C[C@@H]1CC[C@]2(C(=O)O[C@@H]3O[C@H](CO)[C@@H](O)[C@H](O)[C@H]3O)CC[C@]3(C)C(=CC[C@@H]4[C@@]5(C)CC[C@H](O)[C@@](C)(CO)[C@@H]5CC[C@]43C)[C@@H]2[C@]1(C)O", "note": "[PDC, Pedunculoside]", "values": [{"measurement": "Determined Conc. (Mean ± SD)", "setting": "[1]; [4]", "value": "0.596 ± 0.011", "unit": "ng/mL"}, {"measurement": "RE", "setting": "[1]; [4]", "value": "−0.60", "unit": "%"}, {"measurement": "Determined Conc. (Mean ± SD)", "setting": "[1]; [5]", "value": "1.65 ± 0.10", "unit": "ng/mL"}, {"measurement": "RE", "setting": "[1]; [5]", "value": 10.04, "unit": "%"}, {"measurement": "Determined Conc. (Mean ± SD)", "setting": "[1]; [6]", "value": "13.81 ± 0.63", "unit": "ng/mL"}, {"measurement": "RE", "setting": "[1]; [6]", "value": "−7.91", "unit": "%"}, {"measurement": "Determined Conc. (Mean ± SD)", "setting": "[1]; [7]", "value": "183.17 ± 2.59", "unit": "ng/mL"}, {"measurement": "RE", "setting": "[1]; [7]", "value": 1.76, "unit": "%"}, {"measurement": "Determined Conc. (Mean ± SD)", "setting": "[1]; [8]", "value": "0.573 ± 0.008", "unit": "ng/mL"}, {"measurement": "RE", "setting": "[1]; [8]", "value": "−4.56", "unit": "%"}, {"measurement": "Determined Conc. (Mean ± SD)", "setting": "[1]; [9]", "value": "1.52 ± 0.16", "unit": "ng/mL"}, {"measurement": "RE", "setting": "[1]; [9]", "value": 1.11, "unit": "%"}, {"measurement": "Determined Conc. (Mean ± SD)", "setting": "[1]; [10]", "value": "15.96 ± 0.68", "unit": "ng/mL"}, {"measurement": "RE", "setting": "[1]; [10]", "value": 6.39, "unit": "%"}, {"measurement": "Determined Conc. (Mean ± SD)", "setting": "[1]; [11]", "value": "160.70 ± 7.58", "unit": "ng/mL"}, {"measurement": "RE", "setting": "[1]; [11]", "value": "−10.72", "unit": "%"}, {"measurement": "Determined Conc. (Mean ± SD)", "setting": "[1]; [12]", "value": "0.673 ± 0.014", "unit": "ng/mL"}, {"measurement": "RE", "setting": "[1]; [12]", "value": 12.24, "unit": "%"}, {"measurement": "Determined Conc. (Mean ± SD)", "setting": "[1]; [13]", "value": "1.44 ± 0.09", "unit": "ng/mL"}, {"measurement": "RE", "setting": "[1]; [13]", "value": "−3.77", "unit": "%"}, {"measurement": "Determined Conc. (Mean ± SD)", "setting": "[1]; [14]", "value": "14.88 ± 1.03", "unit": "ng/mL"}, {"measurement": "RE", "setting": "[1]; [14]", "value": "−0.77", "unit": "%"}, {"measurement": "Determined Conc. (Mean ± SD)", "setting": "[1]; [15]", "value": "192.71 ± 11.42", "unit": "ng/mL"}, {"measurement": "RE", "setting": "[1]; [15]", "value": 7.06, "unit": "%"}, {"measurement": "Determined Conc. (Mean ± SD)", "setting": "[1]; [16]", "value": "0.570 ± 0.016", "unit": "ng/mL"}, {"measurement": "RE", "setting": "[1]; [16]", "value": "−5.00", "unit": "%"}, {"measurement": "Determined Conc. (Mean ± SD)", "setting": "[1]; [17]", "value": "1.38 ± 0.162", "unit": "ng/mL"}, {"measurement": "RE", "setting": "[1]; [17]", "value": "−7.82", "unit": "%"}, {"measurement": "Determined Conc. (Mean ± SD)", "setting": "[1]; [18]", "value": "16.32 ± 1.37", "unit": "ng/mL"}, {"measurement": "RE", "setting": "[1]; [18]", "value": 8.81, "unit": "%"}, {"measurement": "Determined Conc. (Mean ± SD)", "setting": "[1]; [19]", "value": "162.85 ± 15.57", "unit": "ng/mL"}, {"measurement": "RE", "setting": "[1]; [19]", "value": "−9.53", "unit": "%"}, {"measurement": "AUC(0-inf)", "setting": "[2]; [20]", "value": "379 ± 84.8", "unit": "ng·h/mL"}, {"measurement": "AUC(0-t)", "setting": "[2]; [20]", "value": "374 ± 82.9", "unit": "ng·h/mL"}, {"measurement": "Cmax", "setting": "[2]; [20]", "value": "95.2 ± 7.93", "unit": "ng/mL"}, {"measurement": "Tmax", "setting": "[2]; [20]", "value": "1.6 ± 0.42", "unit": "h"}, {"measurement": "CL/F", "setting": "[2]; [20]", "value": 1930, "unit": "mL/min/kg"}, {"measurement": "MRT last", "setting": "[2]; [20]", "value": "3.17 ± 0.45", "unit": "h"}, {"measurement": "MRT inf", "setting": "[2]; [20]", "value": "3.33 ± 0.48", "unit": "h"}, {"measurement": "Vd/F", "setting": "[2]; [20]", "value": "287 ± 63.5", "unit": "L/kg"}, {"measurement": "half-life", "setting": "[2]; [20]", "value": "1.73 ± 0.11", "unit": "h"}, {"measurement": "AUC(0-inf)", "setting": "[2]; [21]", "value": "665 ± 151", "unit": "ng·h/mL"}, {"measurement": "AUC(0-t)", "setting": "[2]; [21]", "value": "661 ± 149", "unit": "ng·h/mL"}, {"measurement": "Cmax", "setting": "[2]; [21]", "value": "174 ± 12.9", "unit": "ng/mL"}, {"measurement": "Tmax", "setting": "[2]; [21]", "value": "1.8 ± 0.91", "unit": "h"}, {"measurement": "CL/F", "setting": "[2]; [21]", "value": 2110, "unit": "mL/min/kg"}, {"measurement": "MRT last", "setting": "[2]; [21]", "value": "3.08 ± 0.42", "unit": "h"}, {"measurement": "MRT inf", "setting": "[2]; [21]", "value": "3.15 ± 0.44", "unit": "h"}, {"measurement": "Vd/F", "setting": "[2]; [21]", "value": "273 ± 45.6", "unit": "L/kg"}, {"measurement": "half-life", "setting": "[2]; [21]", "value": "1.5 ± 0.08", "unit": "h"}, {"measurement": "hypolipidemic activity", "setting": "[3]", "value": "significant hypolipidemic activity"}]}
